Values joined by “and” are separate entries in the source; they are usually repeats but may differ in a detail not shown here. Equal entries are not always repeated. “Also recorded” adds a separate entry of the source.
What was measured:
[1] = test system: nicotinic receptors mediating dopamine release from rat synaptosomal preparations; details: cited from earlier work
[2] = test system: putative α3β4-containing receptor; details: cited from earlier work
[3] = test system: nicotinic receptors in preparations of rat thalamus; details: cited from earlier work
[4] = biological target: human muscle nicotinic receptors (Homo sapiens, UniProt P02708+P07510+Q07001); details: cited from earlier work
Sequence of human muscle nicotinic receptors (P02708 21-457): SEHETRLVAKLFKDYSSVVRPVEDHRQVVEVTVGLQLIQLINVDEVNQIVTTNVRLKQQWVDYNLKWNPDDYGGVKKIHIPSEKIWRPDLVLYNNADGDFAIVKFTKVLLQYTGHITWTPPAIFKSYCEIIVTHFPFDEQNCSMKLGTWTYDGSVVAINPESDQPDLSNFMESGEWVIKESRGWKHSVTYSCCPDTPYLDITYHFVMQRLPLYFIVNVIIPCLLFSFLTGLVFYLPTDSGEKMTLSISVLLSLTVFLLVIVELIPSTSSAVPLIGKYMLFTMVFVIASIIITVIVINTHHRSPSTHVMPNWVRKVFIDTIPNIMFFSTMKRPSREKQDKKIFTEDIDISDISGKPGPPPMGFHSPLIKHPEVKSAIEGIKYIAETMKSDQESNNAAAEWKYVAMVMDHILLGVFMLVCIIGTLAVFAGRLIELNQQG
Sequence of human muscle nicotinic receptors (Q07001 22-517): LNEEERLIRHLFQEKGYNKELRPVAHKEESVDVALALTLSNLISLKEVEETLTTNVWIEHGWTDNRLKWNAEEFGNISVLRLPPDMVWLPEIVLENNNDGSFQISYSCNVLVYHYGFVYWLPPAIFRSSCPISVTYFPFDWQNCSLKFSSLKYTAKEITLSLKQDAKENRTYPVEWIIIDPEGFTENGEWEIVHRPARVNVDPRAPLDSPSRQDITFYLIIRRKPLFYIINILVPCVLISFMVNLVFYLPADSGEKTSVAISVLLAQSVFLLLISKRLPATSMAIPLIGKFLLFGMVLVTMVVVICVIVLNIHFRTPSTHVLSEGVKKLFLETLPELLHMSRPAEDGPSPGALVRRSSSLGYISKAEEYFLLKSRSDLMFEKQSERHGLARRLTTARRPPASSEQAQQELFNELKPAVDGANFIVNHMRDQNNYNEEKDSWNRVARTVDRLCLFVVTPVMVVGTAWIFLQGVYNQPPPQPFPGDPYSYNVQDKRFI
Sequence of human muscle nicotinic receptors (P11230 24-501 partner): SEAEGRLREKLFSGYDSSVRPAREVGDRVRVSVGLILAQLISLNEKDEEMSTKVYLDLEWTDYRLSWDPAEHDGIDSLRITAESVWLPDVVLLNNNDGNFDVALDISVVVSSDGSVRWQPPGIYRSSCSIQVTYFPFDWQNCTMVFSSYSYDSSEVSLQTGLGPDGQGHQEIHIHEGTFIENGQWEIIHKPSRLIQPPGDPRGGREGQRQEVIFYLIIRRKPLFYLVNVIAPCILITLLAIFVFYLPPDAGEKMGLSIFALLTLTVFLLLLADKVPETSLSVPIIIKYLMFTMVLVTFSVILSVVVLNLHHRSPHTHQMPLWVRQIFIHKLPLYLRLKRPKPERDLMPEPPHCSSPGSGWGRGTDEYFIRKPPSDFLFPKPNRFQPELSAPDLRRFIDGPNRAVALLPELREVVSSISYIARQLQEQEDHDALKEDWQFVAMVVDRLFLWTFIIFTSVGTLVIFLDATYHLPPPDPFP
Sequence of human muscle nicotinic receptors (P07510 23-517): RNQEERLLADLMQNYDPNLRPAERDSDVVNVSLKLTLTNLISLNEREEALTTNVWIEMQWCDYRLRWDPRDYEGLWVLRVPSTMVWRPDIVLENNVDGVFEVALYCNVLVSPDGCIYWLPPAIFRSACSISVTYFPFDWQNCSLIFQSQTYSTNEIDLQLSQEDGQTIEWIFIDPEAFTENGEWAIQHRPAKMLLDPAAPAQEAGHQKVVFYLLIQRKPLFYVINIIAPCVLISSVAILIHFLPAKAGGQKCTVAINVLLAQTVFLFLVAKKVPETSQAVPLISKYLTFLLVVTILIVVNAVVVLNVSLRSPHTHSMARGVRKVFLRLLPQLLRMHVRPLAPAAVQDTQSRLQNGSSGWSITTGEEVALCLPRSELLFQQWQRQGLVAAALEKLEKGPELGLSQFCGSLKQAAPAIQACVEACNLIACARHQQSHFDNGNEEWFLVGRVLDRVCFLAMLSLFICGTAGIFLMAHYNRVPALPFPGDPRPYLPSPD

[5] = test system: chick eye refraction; details: cited from earlier work
[6] = test system: accommodation; details: nicotine intravitreal and subconjunctival; vecuronium bromide applied to corneas; cited from earlier work
[7] = test system: ocular elongation following spectacle-induced hyperopic defocus; details: applied to chick corneas; cited from earlier work
[8] = test system: non-goggled eyes; test: Eye growth and refraction of non-goggled (open) eyes, intravitreal drug for one week
[9] = test system: chick eye (intraocular muscles, refraction, ocular dimensions); test: Acute drug effects after a single intravitreal injection (pupil, refractometry, ultrasonography); type: in vivo, chicks
Method: Acute drug effects. To assess acute drug effects, other two-week old chicks (n=5/group) received a single unilateral intravitreal injection of one of the nicotinic antagonists at doses chosen based on drug effects on the growth of goggled eyes: 200 μg chlorisondamine, 50 μg and 1 μg mecamylamine, 5 μg methyllycaconitine or […] dihydro-β-erythroidine. Just before and at two hours and 24 hours after injection, both eyes were examined by refractometry and ultrasonography by the above methods.

[10] = test system: goggled eyes (form-deprivation myopia); test: Form-deprivation myopia in unilaterally goggled chicks, intravitreal drug for one week
[11] = test system: form deprived eye; test: Longer term effects of single-dose chlorisondamine on form deprivation myopia; type: in vivo, chicks; details: for Refraction Difference: goggled minus contralateral eye
Method: Longer term effects of single-dose chlorisondamine. In a separate experiment, another group of goggled chicks received a single intravitreal dose of 200 μg of chlorisondamine to the form deprived eye and saline to the contralateral eye only at the time of goggle application. They were compared to a group of unilaterally goggled chicks receiving a single saline injection to both eyes only at the time of goggle application. Neither group received subsequent intraocular injections. These chicks were evaluated by refractometry and ultrasound 4 days later, using ketamine/xylazine anesthesia. At one week after goggle application and single drug injection, the same chicks were evaluated again with refractometry, ultrasonography and caliper measurements of enucleated eyes as described above.

[12] = test system: retina, retinal pigment epithelium, choroid; test: Histopathological effects on goggled and never-goggled eyes; type: in vivo, chicks; details: one week
Method: Histopathological effects. To identify potential histopathologic effects in other groups of monocularly deprived or never-goggled one-week old chicks, chlorisondamine (200 or 100 μg every other day; n=5-6/group), mecamylamine (200 or 50 μg daily; n=5-8/group) or saline vehicle (n=3-9/group) was administered by intravitreal injection to the goggled eyes or to one of the open eyes of never-goggled chicks with vehicle to the contralateral eye, using the identical protocol as above. After one week of treatment, the above protocols provided refraction, ultrasound and caliper measurements. The eyes were then immersion fixed in 3% glutaraldehyde/0.5% paraformaldehyde in 0.1M phosphate buffer, pH 7.4. The posterior segments were either embedded in paraffin, cut at 5 μm thickness and stained with hematoxylin and eosin, or embedded in historesin, cut at 3 μm or 5 μm thickness and stained with 0.5% azure II/0.5% methylene blue in 1% borate.

[13] = test system: development of myopia; details: chick, tree shrew, monkey and human; cited from earlier work
[14] = never-goggled chicks, drug treated vs contralateral vehicle treated eye, ANOVA on ranks
[15] = non-goggled chicks, treated eyes, P<0.05
[16] = 2 hours after 200 μg single intravitreal injection
[17] = 24 hours after 200 μg single intravitreal injection
[18] = difference goggled vs contralateral open eye, intravitreal, one week, ANOVA over all doses
[19] = goggled chicks, P<0.05, dose groups that differ, listed as Chlorisondamine
[20] = 1 Week after single 200 μg dose
[21] = 4 Days after single 200 μg dose
[22] = 100 μg every other day, goggled or non-goggled eyes

c1cncc(C2CC3CCN2CC3)c1 (racemic) [RJR-2429, (+/−)-2-(-3-pyridinyl)-1-azabicyclo [2.2.2]octane]
action at nicotinic receptors mediating dopamine release [1]: partial agonist
action at putative α3β4-containing receptor [2]: selectively activates
action at nicotinic receptors in preparations of rat thalamus [3]: inhibits
action at human muscle nicotinic receptors [4]: selectively activates

CN1CCCC1c1cccnc1 (stereo not shown) [nicotine]
myopic refractive shift compared to non-treated eyes ([5]; daily subconjunctival injections, not seen for subconjunctival saline): 0.75 diopters
myopic shift in refraction compared to contralateral non-injected eyes ([5]; twice daily intravitreal injections for two weeks, intravitreal saline had the same effect): ~2 diopter
effect on accommodation in chicks [6]: induce accommodation

CC(=O)O[C@H]1C[C@@H]2CC[C@@H]3[C@H](CC[C@@]4(C)[C@H]3C[C@H]([N+]3(C)CCCCC3)[C@@H]4OC(C)=O)[C@@]2(C)C[C@@H]1N1CCCCC1 [vecuronium bromide]
ocular elongation following spectacle-induced hyperopic defocus [7]: failed to influence
effect on accommodation in chicks [6]: paralyzed accommodation

C[N+](C)(C)CC[N+]1(C)Cc2c(Cl)c(Cl)c(Cl)c(Cl)c2C1 [chlorisondamine, chlorisondamine diiodide]
equatorial expansion of the vitreous cavity, non-goggled drug-treated eyes ([8]; never-goggled chicks, ANOVA on ranks): did not reach statistical significance
increase in lens thickness ([8]; never-goggled chicks, both eyes of the 10 μg group compared to 50, 100 or 200 μg doses and saline chicks): about 0.1 mm
axial expansion of the vitreous cavity, non-goggled drug-treated eyes [8, 14]: growth reduction was confined to the vitreous cavity; also recorded: inhibited the axial expansion of the vitreous cavity
axial length by calipers, non-goggled drug-treated eyes [8, 14]: reduced the axial growth of drug-treated eyes; also recorded: reduced axial length
axial length by ultrasound, non-goggled drug-treated eyes [8, 14]: reduced the axial growth of drug-treated eyes; also recorded: reduced axial length
refraction of non-goggled drug-treated eyes [8, 14]: hyperopic shift in refraction; also recorded: shifted overall refraction towards hyperopia
Ultrasound measurements vitreous cavity depth: statistically significant post hoc pairwise comparisons (Tukey test) [8, 15]: 100 μg and 50 μg and 100 μg vs. 50 μg
refraction: statistically significant post hoc pairwise comparisons (Tukey test) [8, 15]: 200 μg and 10 μg and 200 μg vs. 10 μg
acute effect on ultrasound measurements of ocular dimensions, in words ([9]; 2 and 24 hours after single intravitreal injection): transiently reducing axial and vitreous cavity lengths at the 2 hour but not at the 24 hour reading
reduction in axial length by ultrasonography [9, 16]: 0.16±0.04 mm
reduction in posterior chamber depth by ultrasonography [9, 16]: 0.20±0.07 mm
reduction of lens thickness [9, 16]: 0.12±0.04 mm
axial length and posterior chamber depth at 24 hours [9, 17]: returned to baseline
reduction of lens thickness [9, 17]: 0.16±0.05 mm
pupil diameter, change from baseline ([9]; 24 hours after single intravitreal injection (chlorisondamine 200 μg)): 0.7±0.2 mm
pupil diameter, change from baseline ([9]; two hours after single intravitreal injection of 200 μg): 0.8±0.1 mm
axial length measured by digital calipers, goggled eyes, drug effect [10, 18]: inhibited the excessive axial elongation developing beneath a goggle
axial length measured by ultrasound, goggled eyes, drug effect [10, 18]: inhibited the excessive axial elongation developing beneath a goggle
equatorial diameter measured by calipers (equatorial expansion of vitreous cavity), goggled eyes, drug effect [10, 18]: reduced the vitreous cavity expansion
refraction of goggled eyes (myopic refractive error), drug effect [10, 18]: reduced the myopic refractive error; also recorded: influenced the myopic refraction occurring beneath a goggle
vitreous cavity length measured by ultrasound, goggled eyes, drug effect [10, 18]: reduced the vitreous cavity expansion
Ultrasound measurements vitreous cavity depth: statistically significant post hoc pairwise comparisons (Tukey test) ([10]; goggled chicks, P<0.05, dose groups that differ): 100 μg vs. 50 μg
Ultrasound measurements axial length: statistically significant post hoc pairwise comparisons (Tukey test) [10, 19]: significant drug effects compared to the vehicle-treated controls
Ultrasound measurements vitreous cavity depth: statistically significant post hoc pairwise comparisons (Tukey test) [10, 19]: significant drug effects compared to the vehicle-treated controls
refraction: statistically significant post hoc pairwise comparisons (Tukey test) [10, 19]: significant drug effects compared to the vehicle-treated controls
overall effect on excessive ocular growth / experimental myopia of goggled eyes ([10]; intravitreal, one week): reduced the excessive ocular growth occurring beneath a goggle
anterior chamber depth of goggled eyes, drug effect ([10]; intravitreal, one week, ANOVA): no statistically significant effect
axial length difference (ultrasound), ratio-chlorisondamine/vehicle ([11]; 1 Week): 0.54
vitreous cavity length difference, ratio-chlorisondamine/vehicle ([11]; 1 Week): 0.71
Caliper Measurements axial length difference [11, 20]: 0.22 ± 0.10 mm**
Caliper Measurements equatorial diameter difference [11, 20]: 0.17 ± 0.07 mm****
Ultrasound Measurements axial length difference [11, 20]: 0.33 ± 0.11 mm**
Ultrasound Measurements vitreous cavity length difference [11, 20]: 0.49 ± 0.08 mm*
Refraction Difference [11, 20]: −8.58 ± 2.06 diopters
axial length difference (ultrasound), ratio-chlorisondamine/vehicle ([11]; 4 Days): 0.47
vitreous cavity length difference, ratio-chlorisondamine/vehicle ([11]; 4 Days): 0.70
Ultrasound Measurements axial length difference [11, 21]: 0.20 ± 0.07 mm***
Ultrasound Measurements vitreous cavity length difference [11, 21]: 0.28 ± 0.06 mm
Refraction Difference [11, 21]: −2.98 ± 1.88 diopters**
response for form deprivation after a single dose, in words ([11]; single dose of 200 μg at the time of goggle application, over the next week): significantly blunted the response for form deprivation over the next week
gross inspection of the eye cups [12, 22]: either a normal fundus or only mild peripheral pigmentary changes
histology [12, 22]: Some eyes had normal histology, some showed a single large, smooth hyper-pigmented inclusion within a rare RPE cell as the sole detectable histologic change, and some had a small isolated peripheral patch of the marked RPE/choriocapillaris pathology
gross inspection of the eye cup ([12]; 200 μg every other day, most goggled eyes (4/5) and all never-goggled eyes (n=5)): mild to marked mottling and depigmentation of the mid-peripheral fundus
histology of tissue sections ([12]; 200 μg every other day, regions corresponding to peripheral depigmented areas): marked disruption and clumping of cells of the retinal pigment epithelium (RPE)

CN1[C@@H]2CC[C@H]1C[C@@H](OC(=O)C(CO)c1ccccc1)C2 (stereo partly shown) [atropine]
development of myopia [13]: retards the development of myopia; also recorded: blocks myopia in the chick
effect on accommodation in chicks [6]: fails to paralyze accommodation
